# Test system: lung function
# Assay: Example 1: percent predicted FVC change from baseline
# Assay type: in vivo, human
# Details: mean (SD)
# Procedure: Change From Baseline in Percent Predicted Forced Vital Capacity (FVC) at Each Specified Time Points. FVC was the total amount of air (in liters) exhaled from the lungs during the lung function test measured by spirometer which assessed the change in lung function related to the disease status. Baseline value was defined as valid and last non-missing value obtained within 28 days prior to participant receiving first study medication. EOT visit was performed within 3 days after the participant's last dose of study drug. […] Analysis was performed on mITT population. Here, ‘number analyzed’=participants with available data for each specified category. Here, ‘0’ in the number analyzed field signifies that none of the participants were available for the analysis at the specified time points.
smiles,measurement,setting,value
"CC(C)NC(=O)COc1cccc(-c2nc(Nc3ccc4[nH]ncc4c3)c3ccccc3n2)c1 [Belumosudil, 2-{3-[4-(1H-indazol-5-ylamino)-2-quinazolinyl]phenoxy}-N-(propan-2-yl) acetamide]",Change From Baseline in Percent Predicted Forced Vital Capacity (FVC),"Cohort 2: 200 mg BID, Cycle 12, Day 1",1.0 (—) percent predicted FVC
same,Change From Baseline in Percent Predicted Forced Vital Capacity (FVC),"Cohort 2: 200 mg BID, Cycle 13, Day 1",−3.3 (15.4) percent predicted FVC
same,Change From Baseline in Percent Predicted Forced Vital Capacity (FVC),"Cohort 2: 200 mg BID, Cycle 14, Day 1",2.0 (— ) percent predicted FVC
same,Change From Baseline in Percent Predicted Forced Vital Capacity (FVC),"Cohort 2: 200 mg BID, Cycle 15, Day 1",−3.3 (5.5) percent predicted FVC
same,Change From Baseline in Percent Predicted Forced Vital Capacity (FVC),"Cohort 2: 200 mg BID, Cycle 16, Day 1",−6.0 (19.8) percent predicted FVC
same,Change From Baseline in Percent Predicted Forced Vital Capacity (FVC),"Cohort 2: 200 mg BID, Cycle 17, Day 1",−3.0 (11.8) percent predicted FVC
same,Change From Baseline in Percent Predicted Forced Vital Capacity (FVC),"Cohort 2: 200 mg BID, Cycle 18, Day 1",−7.5 (9.2) percent predicted FVC
same,Change From Baseline in Percent Predicted Forced Vital Capacity (FVC),"Cohort 2: 200 mg BID, Cycle 19, Day 1",−5.3 (4.7) percent predicted FVC
same,Change From Baseline in Percent Predicted Forced Vital Capacity (FVC),"Cohort 2: 200 mg BID, Cycle 20, Day 1",−10.5 (2.1) percent predicted FVC
same,Change From Baseline in Percent Predicted Forced Vital Capacity (FVC),"Cohort 2: 200 mg BID, Cycle 21, Day 1",−3.0 (—) percent predicted FVC
same,Change From Baseline in Percent Predicted Forced Vital Capacity (FVC),"Cohort 2: 200 mg BID, Cycle 22, Day 1",−11.0 (0.0) percent predicted FVC
same,Change From Baseline in Percent Predicted Forced Vital Capacity (FVC),"Cohort 2: 200 mg BID, Cycle 23, Day 1",−11.0 (2.8) percent predicted FVC
same,Change From Baseline in Percent Predicted Forced Vital Capacity (FVC),"Cohort 2: 200 mg BID, Cycle 24, Day 1",−13.0 (—) percent predicted FVC
same,Change From Baseline in Percent Predicted Forced Vital Capacity (FVC),"Cohort 2: 200 mg BID, Cycle 25, Day 1",−10.5 (3.5) percent predicted FVC
same,Change From Baseline in Percent Predicted Forced Vital Capacity (FVC),"Cohort 2: 200 mg BID, Cycle 27, Day 1",−18.0 (12.7) percent predicted FVC
same,Change From Baseline in Percent Predicted Forced Vital Capacity (FVC),"Cohort 2: 200 mg BID, Cycle 29, Day 1",−11.0 (—) percent predicted FVC
same,Change From Baseline in Percent Predicted Forced Vital Capacity (FVC),"Cohort 2: 200 mg BID, Cycle 31, Day 1",−15.5 (7.8) percent predicted FVC
same,Change From Baseline in Percent Predicted Forced Vital Capacity (FVC),"Cohort 2: 200 mg BID, Cycle 33, Day 1",−17.5 (7.8) percent predicted FVC
same,Change From Baseline in Percent Predicted Forced Vital Capacity (FVC),"Cohort 2: 200 mg BID, Cycle 35, Day 1",−15.0 (11.3) percent predicted FVC
same,Change From Baseline in Percent Predicted Forced Vital Capacity (FVC),"Cohort 2: 200 mg BID, EOT",−8.4 (9.2) percent predicted FVC
same,Change From Baseline in Percent Predicted Forced Vital Capacity (FVC),"Cohort 3: 400 mg QD, Cycle 2, Day 1",−5.5 (9.9) percent predicted FVC
same,Change From Baseline in Percent Predicted Forced Vital Capacity (FVC),"Cohort 3: 400 mg QD, Cycle 3, Day 1",−3.0 (6.7) percent predicted FVC
same,Change From Baseline in Percent Predicted Forced Vital Capacity (FVC),"Cohort 3: 400 mg QD, Cycle 4, Day 1",−0.2 (8.6) percent predicted FVC
same,Change From Baseline in Percent Predicted Forced Vital Capacity (FVC),"Cohort 3: 400 mg QD, Cycle 5, Day 1",1.6 (6.3) percent predicted FVC
same,Change From Baseline in Percent Predicted Forced Vital Capacity (FVC),"Cohort 3: 400 mg QD, Cycle 6, Day 1",0.8 (9.5) percent predicted FVC
same,Change From Baseline in Percent Predicted Forced Vital Capacity (FVC),"Cohort 3: 400 mg QD, Cycle 7, Day 1",2.3 (9.7) percent predicted FVC
same,Change From Baseline in Percent Predicted Forced Vital Capacity (FVC),"Cohort 3: 400 mg QD, Cycle 8, Day 1",0.4 (8.9) percent predicted FVC
same,Change From Baseline in Percent Predicted Forced Vital Capacity (FVC),"Cohort 3: 400 mg QD, Cycle 9, Day 1",−0.8 (9.5) percent predicted FVC
same,Change From Baseline in Percent Predicted Forced Vital Capacity (FVC),"Cohort 3: 400 mg QD, Cycle 10, Day 1",4.7 (4.9) percent predicted FVC
same,Change From Baseline in Percent Predicted Forced Vital Capacity (FVC),"Cohort 3: 400 mg QD, Cycle 11, Day 1",−4.4 (12.0) percent predicted FVC
same,Change From Baseline in Percent Predicted Forced Vital Capacity (FVC),"Cohort 3: 400 mg QD, Cycle 12, Day 1",0.7 (5.8) percent predicted FVC
same,Change From Baseline in Percent Predicted Forced Vital Capacity (FVC),"Cohort 3: 400 mg QD, Cycle 13, Day 1",−4.9 (9.8) percent predicted FVC
same,Change From Baseline in Percent Predicted Forced Vital Capacity (FVC),"Cohort 3: 400 mg QD, Cycle 14, Day 1",−2.7 (7.1) percent predicted FVC
same,Change From Baseline in Percent Predicted Forced Vital Capacity (FVC),"Cohort 3: 400 mg QD, Cycle 15, Day 1",−4.8 (11.5) percent predicted FVC
same,Change From Baseline in Percent Predicted Forced Vital Capacity (FVC),"Cohort 3: 400 mg QD, Cycle 16, Day 1",−6.5 (6.5) percent predicted FVC
same,Change From Baseline in Percent Predicted Forced Vital Capacity (FVC),"Cohort 3: 400 mg QD, Cycle 17, Day 1",−5.6 (12.8) percent predicted FVC
same,Change From Baseline in Percent Predicted Forced Vital Capacity (FVC),"Cohort 3: 400 mg QD, Cycle 18, Day 1",4.0 (4.0) percent predicted FVC
same,Change From Baseline in Percent Predicted Forced Vital Capacity (FVC),"Cohort 3: 400 mg QD, Cycle 19, Day 1",0.8 (5.1) percent predicted FVC
same,Change From Baseline in Percent Predicted Forced Vital Capacity (FVC),"Cohort 3: 400 mg QD, Cycle 20, Day 1",−2.0 (5.6) percent predicted FVC
same,Change From Baseline in Percent Predicted Forced Vital Capacity (FVC),"Cohort 3: 400 mg QD, Cycle 21, Day 1",−6.6 (17.0) percent predicted FVC
same,Change From Baseline in Percent Predicted Forced Vital Capacity (FVC),"Cohort 3: 400 mg QD, Cycle 22, Day 1",−6.0 (8.5) percent predicted FVC
same,Change From Baseline in Percent Predicted Forced Vital Capacity (FVC),"Cohort 3: 400 mg QD, Cycle 23, Day 1",−1.8 (10.6) percent predicted FVC
same,Change From Baseline in Percent Predicted Forced Vital Capacity (FVC),"Cohort 3: 400 mg QD, Cycle 24, Day 1",−15.0 (—) percent predicted FVC
same,Change From Baseline in Percent Predicted Forced Vital Capacity (FVC),"Cohort 3: 400 mg QD, Cycle 25, Day 1",−1.3 (11.7) percent predicted FVC
same,Change From Baseline in Percent Predicted Forced Vital Capacity (FVC),"Cohort 3: 400 mg QD, Cycle 27, Day 1",−4.0 (21.2) percent predicted FVC
same,Change From Baseline in Percent Predicted Forced Vital Capacity (FVC),"Cohort 3: 400 mg QD, Cycle 29, Day 1",6.0 (1.4) percent predicted FVC
same,Change From Baseline in Percent Predicted Forced Vital Capacity (FVC),"Cohort 3: 400 mg QD, Cycle 31, Day 1",−4.0 (—) percent predicted FVC
same,Change From Baseline in Percent Predicted Forced Vital Capacity (FVC),"Cohort 3: 400 mg QD, Cycle 35, Day 1",−3.0 (—) percent predicted FVC
same,Change From Baseline in Percent Predicted Forced Vital Capacity (FVC),"Cohort 3: 400 mg QD, Cycle 36, Day 1",2.0 (—) percent predicted FVC
same,Change From Baseline in Percent Predicted Forced Vital Capacity (FVC),"Cohort 3: 400 mg QD, Cycle 49, Day 1",2.0 (—) percent predicted FVC
same,Change From Baseline in Percent Predicted Forced Vital Capacity (FVC),"Cohort 3: 400 mg QD, EOT",−7.8 (14.7) percent predicted FVC

# Source: patent US20260027116A1, “Methods of Treating Chronic Graft-Versus-Host Disease Following Allogeneic Hematopoietic Stem Cell Transplantation” (Kadmon Corporation, LLC, priority 2022, published 2026)
